Data set [1] has as its system RPMI-8226. In words: Antiproliferative activity against human RPMI-8226 cells assessed as inhibition of cell growth incubated for 72 hrs by celltiter-glo assay. Type of data set: functional, cell-based. To be noted: RPMI-8226, 72 h. (In general: ATP-based viability assays read luminescence as a measure of living cells.)
Data set [2] deals with ARH-77. In words: Antiproliferative activity against human ARH-77 cells assessed as inhibition of cell growth incubated for 72 hrs by celltiter-glo assay. Type of data set: functional, cell-based. To be noted: ARH-77, 72 h.
The target in data set [3] is Exportin-1 (Homo sapiens) (UniProt O14980). In words: Reversible competitive inhibition of human recombinant CRM1 at 2 uM incubated for 2 hrs in presence of 3-(1-((E)-3-(methoxyamino)-3-oxo-2-(pyrimidin-5-yl)prop-1-en-1-yl)-1H-1,2,4-triazol-3-yl)-5-(trifluoromethyl)phenyl 3-(5-((3aS,4S,6aR)-2-oxohexahydro-1H-thieno[3,4-d]imidazol-4-yl)pentanamido)propanoate by pull down based Western blot analysis.

Data set [4] in a line: Metabolic stability in human liver microsomes assessed as half life measured upto 60 mins in presence of NADPH by LC/MS-MS analysis. Type of data set: ADME, Microsome.
Data set [5] in a line: Tmax in male Sprague-Dawley rat at 10 mg/kg, po measured upto 30 hrs by LC-MS/MS analysis. Type of data set: ADME, organism-based. To be noted: in vivo.

Calls of active or inactive are those of the source. The calls are words filed in the database; no cut-off is given here. Where only a bound is given, the exact number is not on record here.

Usually IC50 stands for the concentration that gives 50% inhibition. A word on the half-life: it is how long it takes for the measured level to halve. By Tmax is commonly meant the time from dosing to the highest level.

Chain of Exportin-1 (Homo sapiens) (O14980 whole entry): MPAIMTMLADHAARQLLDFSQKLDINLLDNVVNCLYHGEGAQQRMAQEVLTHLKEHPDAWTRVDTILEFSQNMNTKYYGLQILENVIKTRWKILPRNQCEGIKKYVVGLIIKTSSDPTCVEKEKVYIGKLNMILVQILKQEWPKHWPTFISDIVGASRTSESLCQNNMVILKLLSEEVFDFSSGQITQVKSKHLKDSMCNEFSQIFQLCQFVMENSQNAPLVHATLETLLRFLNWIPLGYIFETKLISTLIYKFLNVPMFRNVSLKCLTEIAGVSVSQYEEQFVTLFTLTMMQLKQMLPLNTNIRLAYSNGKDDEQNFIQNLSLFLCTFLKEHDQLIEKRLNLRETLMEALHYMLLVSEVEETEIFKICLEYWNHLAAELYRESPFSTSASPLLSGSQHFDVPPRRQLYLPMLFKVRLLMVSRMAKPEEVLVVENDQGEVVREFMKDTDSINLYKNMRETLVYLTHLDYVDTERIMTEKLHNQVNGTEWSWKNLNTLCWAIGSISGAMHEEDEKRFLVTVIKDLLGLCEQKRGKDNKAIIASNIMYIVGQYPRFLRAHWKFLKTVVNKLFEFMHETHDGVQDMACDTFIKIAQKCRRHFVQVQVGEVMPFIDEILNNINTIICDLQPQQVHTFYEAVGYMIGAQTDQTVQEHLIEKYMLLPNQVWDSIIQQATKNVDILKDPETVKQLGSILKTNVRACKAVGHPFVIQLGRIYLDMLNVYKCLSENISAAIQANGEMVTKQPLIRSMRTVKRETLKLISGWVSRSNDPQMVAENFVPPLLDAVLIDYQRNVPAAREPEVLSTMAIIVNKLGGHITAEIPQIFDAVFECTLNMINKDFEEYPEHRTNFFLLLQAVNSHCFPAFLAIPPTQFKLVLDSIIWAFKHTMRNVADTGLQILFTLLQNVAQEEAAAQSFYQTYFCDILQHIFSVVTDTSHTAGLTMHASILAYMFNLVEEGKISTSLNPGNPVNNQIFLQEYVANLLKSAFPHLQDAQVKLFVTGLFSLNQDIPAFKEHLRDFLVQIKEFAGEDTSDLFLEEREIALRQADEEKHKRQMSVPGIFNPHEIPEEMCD

Turning to `CONC(=O)/C(=C/n1cnc(-c2cc(C(F)(F)F)cc(C(F)(F)F)c2)n1)c1cncnc1`, the IC50 in data set [1] and in data set [2] was 304 nM throughout. For the same compound, the inhibition result in data set [3] was “Active”. For the same compound, the half-life in data set [4] is > 120 min. Besides, the Tmax in data set [5] was determined as 18 min.

For the origin of these results see ChEMBL document CHEMBL6083277, “Discovery of SZJK-0421: A Novel Potent, Low Toxicity, Selective Second Generation of CRM1 Inhibitor for the Treatment of Both Hematological and Solid Tumors” (J Med Chem, 2024).
